Patent US20220251141A1, “IMMUNOMODULATORS” (Bristol-Myers Squibb Company, priority 2019, published 2022)
Numbered stars: 1 amine (or outer) side, 2 acyl side, 3 side chain; on linkers, the order of the positions; unused ones are H or OH. Bridge positions count the residues as written; N and C are the ends. Square brackets hold non-standard residues; d marks the D form. Side chains are listed from the residue outwards. Peptide text beside a SMILES is read from it. * marks the point of attachment. Trp(1-CH2CO2Me) = COC(=O)Cn1cc(C[C@H](N)C(=O)O)c2ccccc21; Trp(1-CH2COOH) = N[C@@H](Cc1cn(CC(=O)O)c2ccccc12)C(=O)O; NHCH2CH2Ph(3,4-OCH2O) = c1cc2c(cc1CCN*)OCO2; Trp(1-Me) = Cn1cc(C[C@H](N)C(=O)O)c2ccccc21; X15 = CCNC(=S)NCC[C@H](N[*:1])C(=O)[*:2]; X14 = CCNC(=S)NC[C@H](N[*:1])C(=O)[*:2]; Phe(4-F) = N[C@@H](Cc1ccc(F)cc1)C(=O)O; NHCHPh2 = c1ccc(C(N*)c2ccccc2)cc1; Hyp = O=C(O)[C@@H]1C[C@@H](O)CN1; NMeNle = CCCC[C@H](NC)C(=O)O; Pen = CC(C)(S)[C@H](N)C(=O)O; Decanoyl = CCCCCCCCCC(=O)*; Pip = O=C(O)[C@@H]1CCCCN1; NMeA = CN[C@@H](C)C(=O)O; Dab = NCC[C@H](N)C(=O)O; Dap = NC[C@H](N)C(=O)O; CO = O=C([*:1])[*:2]; Piv = CC(C)(C)C(=O)*; X1 = CC(=O)NC(=O)*

The compounds below were run against T1, PD-1/PD-L1 (Homo sapiens, UniProt Q9NZQ7) (assay: PD-1/PD-L1 Homogenous Time-Resolved Fluorescence (HTRF) binding assay). Conditions: PD-L1-His 10 nM final, PD-1-Ig 20 nM final; inhibitors pre-incubated with PD-L1-His for 15 m.
T1 construct: TVMV protease site linker (C); made in house; host or cells: HEK293T cells
Description: The ability of the compounds of formula (I) to bind to PD-L1 was investigated using a PD-1/PD-L1 Homogenous Time-Resolved Fluorescence (HTRF) binding assay.
The interaction of PD-1 and PD-L1 can be assessed using soluble, purified preparations of the extracellular domains of the two proteins. The PD-1 and PD-L1 protein extracellular domains were expressed as fusion proteins with detection tags, for PD-1, the tag was the Fc portion of Immunoglobulin (PD-1-Ig) and for PD-L1 it was the 6 histidine motif (PD-L1-His). All binding studies were performed in an HTRF assay buffer consisting of dPBS supplemented with 0.1% […] bovine serum albumin and 0.05% (v/v) Tween-20. For the h/PD-L1-His binding assay, inhibitors were pre-incubated with PD-L1-His (10 nM final) for 15 m in 4 μl of assay buffer, followed by addition of PD-1-Ig (20 nM final) in 1 μl of assay buffer and further incubation for 15 m. HTRF detection was achieved using europium cryptate-labeled anti-Ig (1 nM final) and allophycocyanin (APC) labeled anti-His (20 nM final). Antibodies were diluted in HTRF detection buffer and 5 μl was dispensed on top of the binding reaction. The reaction mixture was allowed to equilibrate for 30 minutes and the resulting signal (665 nm/620 nm ratio) was obtained using an EnVision fluorometer. Additional binding assays were established between the human proteins PD-1-Ig/PD-L2-His (20 & 5 nM, respectively) and CD80-His/PD-L1-Ig (100 & 10 nM, respectively).
Recombinant Proteins: Human PD-1 (25-167) with a C-terminal human Fc domain of immunoglobulin G (Ig) epitope tag [hPD-1 (25-167)-3S-IG] and human PD-L1 (18-239) with a C-terminal His epitope tag [hPD-L1(18-239)-TVMV-His] were expressed in HEK293T cells and purified sequentially by Protein A affinity chromatography and size exclusion chromatography. Human PD-L2-His and CD80-His was obtained through commercial sources.
Table 3 lists the IC50 values for representative examples of this disclosure measured in the PD-1/PD-L1 Homogenous Time-Resolved Fluorescence (HTRF) binding assay.

IC50	SMILES
12.5 nM	CCCC[C@H]1C(=O)N(C)[C@@H](CCCC)C(=O)N[C@@H](CCC(N)=O)C(=O)N[C@H](C(N)=O)CSCC(=O)N[C@@H](Cc2ccc(F)cc2)C(=O)N2CCCC[C@H]2C(=O)N[C@@H](CC(N)=O)C(=O)N2CCC[C@H]2C(=O)N[C@@H](CNC(=O)C(C)(C)C)C(=O)N[C@@H](CC(C)C)C(=O)N2C[C@H](O)C[C@H]2C(=O)N[C@@H](Cc2c[nH]c3ccccc23)C(=O)N[C@@H](CCN)C(=O)N[C@@H](Cc2cn(C)c3ccccc23)C(=O)N1C [Example 20150] ({CH2CO}-[Phe(4-F)][Pip]NP[Dap](Piv)L[Hyp]W[Dab][Trp(1-Me)][NMeNle][NMeNle]QC-NH2; thioether N-14)
16.6 nM	CCCC[C@H]1C(=O)N(C)[C@@H](CCCC)C(=O)N[C@@H](CCC(N)=O)C(=O)N[C@H](C(N)=O)C(C)SCC(=O)N[C@@H](Cc2ccc(F)cc2)C(=O)N2CCCC[C@H]2C(=O)N[C@@H](CC(N)=O)C(=O)N2CCC[C@H]2C(=O)N[C@@H](CNC(=O)C(C)(C)C)C(=O)N[C@@H](C(C)C)C(=O)N2C[C@H](O)C[C@H]2C(=O)N[C@@H](Cc2c[nH]c3ccccc23)C(=O)N[C@@H](CCN)C(=O)N[C@@H](Cc2cn(C)c3ccccc23)C(=O)N1C (stereo partly drawn) [Example 20220]
4.9 nM	CCCC[C@H]1C(=O)N(C)[C@@H](CCCC)C(=O)N[C@@H](CC(C)C)C(=O)N[C@H](C(=O)NCC(N)=O)CSCC(=O)N[C@@H](Cc2ccc(O)cc2)C(=O)N(C)[C@@H](C)C(=O)N[C@@H](CC(N)=O)C(=O)N2CCC[C@H]2C(=O)N[C@@H](CNC(=O)NCC)C(=O)N[C@@H](CC(C)C)C(=O)N2C[C@H](O)C[C@H]2C(=O)N[C@@H](Cc2c[nH]c3ccccc23)C(=O)N[C@@H](CCNC(=O)NCC)C(=O)N[C@@H](Cc2cn(CC(=O)O)c3ccccc23)C(=O)N1C [Example 1029] ({CH2CO}-Y[NMeA]NP[Dap]([CO-NHEt])L[Hyp]W[Dab]([CO-NHEt])[Trp(1-CH2COOH)][NMeNle][NMeNle]LCG-NH2; thioether N-14)
4.7 nM	CCCC[C@H]1C(=O)N(C)[C@@H](CCCC)C(=O)N[C@@H](CC(C)C)C(=O)N[C@H](C(=O)NCC(N)=O)CSCC(=O)N[C@@H](Cc2ccc(O)cc2)C(=O)N(C)[C@@H](C)C(=O)N[C@@H](CC(N)=O)C(=O)N2CCC[C@H]2C(=O)N[C@@H](CNC(=O)NC(C)=O)C(=O)N[C@@H](CC(C)C)C(=O)N2C[C@H](O)C[C@H]2C(=O)N[C@@H](Cc2c[nH]c3ccccc23)C(=O)N[C@@H](CCNC(=O)NC(C)=O)C(=O)N[C@@H](Cc2cn(CC(=O)O)c3ccccc23)C(=O)N1C [Example 1031] ({CH2CO}-Y[NMeA]NP[Dap](X1)L[Hyp]W[Dab](X1)[Trp(1-CH2COOH)][NMeNle][NMeNle]LCG-NH2; thioether N-14)
11.7 nM	CCCC[C@H]1C(=O)N(C)[C@@H](CCCC)C(=O)N[C@@H](CCC(=O)O)C(=O)N[C@H](C(N)=O)CSCC(=O)N[C@@H](Cc2ccc(F)cc2)C(=O)N2CCCC[C@H]2C(=O)N[C@@H](CC(N)=O)C(=O)N2CCC[C@H]2C(=O)N[C@@H](CNC(=O)C(C)(C)C)C(=O)N[C@@H](CC(C)C)C(=O)N2CCC[C@H]2C(=O)N[C@@H](Cc2c[nH]c3ccccc23)C(=O)N[C@@H](CCN)C(=O)N[C@@H](Cc2cn(CC(=O)O)c3ccccc23)C(=O)N1C [Example 20110] ({CH2CO}-[Phe(4-F)][Pip]NP[Dap](Piv)LPW[Dab][Trp(1-CH2COOH)][NMeNle][NMeNle]EC-NH2; thioether N-14)
15.8 nM	CCCC[C@H]1C(=O)N(C)[C@@H](CCCC)C(=O)N[C@@H](CC(C)C)C(=O)N[C@H](C(N)=O)CSCC(=O)N[C@@H](Cc2ccc(F)cc2)C(=O)N2CCCC[C@H]2C(=O)N[C@@H](CC(N)=O)C(=O)N2CCC[C@H]2C(=O)N[C@@H](CNC(=O)C(C)(C)C)C(=O)N[C@@H](CC(C)C)C(=O)N2C[C@H](O)C[C@H]2C(=O)N[C@@H](Cc2c[nH]c3ccccc23)C(=O)N[C@@H](CCNC(=O)C(C)(C)C)C(=O)N[C@@H](Cc2cn(CC(=O)O)c3ccccc23)C(=O)N1C [Example 20200] ({CH2CO}-[Phe(4-F)][Pip]NP[Dap](Piv)L[Hyp]W[Dab](Piv)[Trp(1-CH2COOH)][NMeNle][NMeNle]LC-NH2; thioether N-14)
11.8 nM	CCCC[C@H]1C(=O)N(C)[C@@H](CCCC)C(=O)N[C@@H](CC(C)C)C(=O)N[C@H](C(N)=O)C(C)(C)SCC(=O)N[C@@H](Cc2ccc(F)cc2)C(=O)N2CCCC[C@H]2C(=O)N[C@@H](CC(N)=O)C(=O)N2CCC[C@H]2C(=O)N[C@@H](CNC(=O)C(C)(C)C)C(=O)N[C@@H](CC(C)C)C(=O)N2C[C@H](O)C[C@H]2C(=O)N[C@@H](Cc2c[nH]c3ccccc23)C(=O)N[C@@H](CCN)C(=O)N[C@@H](Cc2cn(C)c3ccccc23)C(=O)N1C [Example 20120] ({CH2CO}-[Phe(4-F)][Pip]NP[Dap](Piv)L[Hyp]W[Dab][Trp(1-Me)][NMeNle][NMeNle]L[Pen]-NH2; thioether N-14)
> 10000 nM	CCCCCCCCCC(=O)NCC[C@@H]1NC(=O)[C@H](Cc2c[nH]c3ccccc23)NC(=O)[C@@H]2C[C@@H](O)CN2C(=O)[C@H](CC(C)C)NC(=O)[C@H](CNC(=O)CCCCCCCCC)NC(=O)[C@@H]2CCCN2C(=O)[C@H](CC(N)=O)NC(=O)[C@H](C)N(C)C(=O)[C@H](Cc2ccc(O)cc2)NC(=O)CSC[C@@H](C(=O)NCC(N)=O)NC(=O)[C@H](CC(C)C)NC(=O)[C@H](CCCC)N(C)C(=O)[C@H](CCCC)N(C)C(=O)[C@H](Cc2cn(CC(=O)OC)c3ccccc23)NC1=O [Example 1004] ({CH2CO}-Y[NMeA]NP[Dap](Decanoyl)L[Hyp]W[Dab](Decanoyl)[Trp(1-CH2CO2Me)][NMeNle][NMeNle]LCG-NH2; thioether N-14)
4.5 nM	CCCC[C@H]1C(=O)N(C)[C@@H](CCCC)C(=O)N[C@@H](CC(C)C)C(=O)N[C@H](C(=O)NCC(N)=O)CSCC(=O)N[C@@H](Cc2ccc(O)cc2)C(=O)N(C)[C@@H](C)C(=O)N[C@@H](CC(N)=O)C(=O)N2CCC[C@H]2C(=O)N[C@@H](CNC(=S)NCC)C(=O)N[C@@H](CC(C)C)C(=O)N2C[C@H](O)C[C@H]2C(=O)N[C@@H](Cc2c[nH]c3ccccc23)C(=O)N[C@@H](CCNC(=S)NCC)C(=O)N[C@@H](Cc2cn(CC(=O)O)c3ccccc23)C(=O)N1C [Example 1026] ({CH2CO}-Y[NMeA]NP[X14]L[Hyp]W[X15][Trp(1-CH2COOH)][NMeNle][NMeNle]LCG-NH2; thioether N-14)
14 nM	CCCC[C@H]1C(=O)N(C)[C@@H](CCCC)C(=O)N[C@@H](CCC(=O)O)C(=O)N[C@H](C(N)=O)CSCC(=O)N[C@@H](Cc2ccc(F)cc2)C(=O)N2CCCC[C@H]2C(=O)N[C@@H](CC(=O)O)C(=O)N2CCC[C@H]2C(=O)N[C@@H](CNC(=O)C(C)(C)C)C(=O)N[C@@H](CC(C)C)C(=O)N2C[C@H](O)C[C@H]2C(=O)N[C@@H](Cc2c[nH]c3ccccc23)C(=O)N[C@@H](CCN)C(=O)N[C@@H](Cc2cn(CC(=O)O)c3ccccc23)C(=O)N1C [Example 20170] ({CH2CO}-[Phe(4-F)][Pip]DP[Dap](Piv)L[Hyp]W[Dab][Trp(1-CH2COOH)][NMeNle][NMeNle]EC-NH2; thioether N-14)

SMILES	IC50
CCCC[C@H]1C(=O)N(C)[C@@H](CCCC)C(=O)N[C@@H](CC(C)C)C(=O)N[C@H](C(=O)NCC(N)=O)CSCC(=O)N[C@@H](Cc2ccc(O)cc2)C(=O)N(C)[C@@H](C)C(=O)N[C@@H](CC(N)=O)C(=O)N2CCC[C@H]2C(=O)N[C@@H](CNC(=O)NCCc2ccc3c(c2)OCO3)C(=O)N[C@@H](CC(C)C)C(=O)N2C[C@H](O)C[C@H]2C(=O)N[C@@H](Cc2c[nH]c3ccccc23)C(=O)N[C@@H](CCN)C(=O)N[C@@H](Cc2cn(CC(=O)O)c3ccccc23)C(=O)N1C [Example 1039] ({CH2CO}-Y[NMeA]NP[Dap]([CO-NHCH2CH2Ph(3,4-OCH2O)])L[Hyp]W[Dab][Trp(1-CH2COOH)][NMeNle][NMeNle]LCG-NH2; thioether N-14)	1.5 nM
CCCC[C@H]1C(=O)N(C)[C@@H](CCCC)C(=O)N[C@@H](CC(C)C)C(=O)N[C@H](C(=O)NCC(N)=O)CSCC(=O)N[C@@H](Cc2ccc(O)cc2)C(=O)N(C)[C@@H](C)C(=O)N[C@@H](CC(N)=O)C(=O)N2CCC[C@H]2C(=O)N[C@@H](CNC(=O)NC(c2ccccc2)c2ccccc2)C(=O)N[C@@H](CC(C)C)C(=O)N2C[C@H](O)C[C@H]2C(=O)N[C@@H](Cc2c[nH]c3ccccc23)C(=O)N[C@@H](CCNC(=O)NC(c2ccccc2)c2ccccc2)C(=O)N[C@@H](Cc2cn(CC(=O)O)c3ccccc23)C(=O)N1C [Example 1037] ({CH2CO}-Y[NMeA]NP[Dap]([CO-NHCHPh2])L[Hyp]W[Dab]([CO-NHCHPh2])[Trp(1-CH2COOH)][NMeNle][NMeNle]LCG-NH2; thioether N-14)	5.1 nM
